Reference: patent US20250066347A1, “SUBSTITUTED THIAZOLIDINEDIONE DERIVATIVE COMPOUND, AND PHARMACEUTICAL COMPOSITION FOR PREVENTING OR TREATING CANCER, COMPRISING SAME” (MEDIFIC, INC., priority 2021, published 2025)
Read-outs that look alike come from different tables or passages of the source.

Experiments:
[1] = tested on: SREBP; assay: Cell-based assay system using a 6xSRE reporter vector (copGFP intensity) in HOG-GSC-6xSRE-copGFP_HIGH cells; set-up: dose or concentration left out as unconfirmed; details: copGFP intensity normalized to DMSO control = 1, 72 hours
From the text: First, as shown in (a) of FIG. 1, SRE(5′-ATCACCCCAC-3′) 6 copies which are DNA seCuences to which a transcription factor, SREBP active form bonds were inserted into a minimal CMV promoter 5′ front end of a pGreenfire-Lenti-reporter vector to produce a 6xSRE reporter vector. The 6xSRE reporter vector is a vector system in which a minimal CMV promoter is activated only when SREBP in an activated form bonds to 6xSRE and copGFP is expressed, and after the vector was introduced to HOG-GSC which is a brain tumor stem cell, separation into a GFP high cell and a GFP low cell through FACS sorting was performed. Each of SREBP1a and SREBP1c in an active form was overexpressed in separated GFP-low cells (b of FIG. 1), and it was measured therefrom whether the expression amount of GFP was increased. As a result, it was confirmed that the overexpression of SREBP1a and SREBP1c active forms increased GFP expression by 43.30% and 93.49%, in separated GFP-low cells (c of FIG. 1). The separated GFP-high cells were treated with each of fatostatin and FGH10019 known to inhibit activity of DMSO and SREBP which was a control group to measure a change in the expression amount of GFP, and, as a result, it was confirmed that when treated with known materials, fatostatin and FGH10019, the expression of GFP was inhibited by up to 50% (d of FIG. 1).
HOG-GSC-6xSRE-copGFP_HIGH cells were dispensed into a 96-well plate (Corning) at 5000/well, each well was treated […], and then all wells were photographed every 3 hours for 72 hours in an incubator (ThermoFisher) at […], 5% CO2, using real-time cell imaging equipment (Incucyte) to photograph changes in copGFP intensity.

[2] = In vivo brain tissue distribution test after oral administration; details: mouse; for Kp / Cmax / Tmax / AUC(0-inf) / AUC(0-t) / MRT inf / half-life: Hsd:ICR(CD-1R); for Kp: brain/plasma, po, 25 mg/kg, PO; for AUC(0-inf): read-out: AUCinf, Mean; for AUC(0-t): read-out: AUClast, Mean; for MRT inf: read-out: MRTinf, Mean; for half-life: read-out: t1/2, Mean (converted)
Description: • Test drug: Compound 11 • Excipient: 20% hydroxypropyl-β-cyclodextrin aqueous solution to which 1% DMSO was added 2.2. Experimental system • Mouse, Hsd:ICR(CD-1R), SPF […] (7 weeks old at the time of administration)
After obtaining the mouse, the mouse was quarantined and acclimatized for 2 weeks, and used in the experiment. An administration dose was 25 mg/kg. A dosage for each individual was calculated based on the weight after fasting for 15 hours (on the day of administration), and the drug was orally administered once using a disposable syringe (1 mL) with a zonde for oral administration attached.
After respiratory anesthesia, blood was collected by heart blood collection with a 1 mL syringe, placed in a K2-EDTA-treated tube, and centrifuged at 8,000 RPM at 4° C. for 20 minutes, and plasma was collected from a supernatant. Heat perfusion was performed on animals after blood collection, a brain tissue was harvested, and olfactory bulb, cerebellum, pones, and medulla oblongata were removed from the harvested brain tissue. The collected plasma and brain tissue were frozen and stored at −80° C. until analysis.
In order to secure a sufficient amount of analysis sample, a mixed (pulled) sample of brain tissue and blood secured from two individuals was used (securing three repetitive samples from 6 animals in one collection). Blood plasma and brain tissue were collected from a mouse of the same week of age to which the compound was not administered, and used as a blank blood plasma and a blank tissue in the material concentration analysis.
190 μL of acetonitrile was added to 10 μL of a blood plasma sample including 200 ng/mL of the internal standard material and vortexed at 2,500 RPM for 60 seconds. Thereafter, centrifugation was performed at 12,000 RPM for 5 minutes, and 50 μL of a supernatant was taken and mixed with 50 μL of acetonitrile. 2 μL thereof was injected into LC-MS/MS.
The brain tissue was weighed, third distilled water equivalent to 4 times (w/v=¼) the weight was added, and homogenization was performed using a homogenizer. 10 μL of the homogenized tissue mixed solution was taken, 190 μL of acetonitrile including 50 ng/mL of the internal standard material was added, and vortexing was performed at 2,500 RPM for 60 seconds. Thereafter, centrifugation was performed at 12,000 RPM for 10 minutes, and 2 μL of a supernatant was taken and injected into LC-MS/MS.
PK parameter was calculated with a Non-compartmental analysis model using a PKSolver2.0 software.

Kp ([2]; read-out: Brain-to-plasma ratio by AUC (brain/plasma)): 0.543 | Kp ([2]; read-out: Brain-to-plasma ratio by concentration (brain/plasma), Average): 0.47 | Kp ([2]; read-out: Brain-to-plasma ratio by concentration (brain/plasma), Max): 0.777 | Cmax ([2]; Brain (25 mg/kg, PO)): 12600 ng/mL | Tmax ([2]; Brain (25 mg/kg, PO)): 3 h | AUC(0-inf) ([2]; Brain (25 mg/kg, PO)): 96.8 µg·h/mL | AUC(0-t) ([2]; Brain (25 mg/kg, PO)): 96 µg·h/mL | MRT inf ([2]; Brain (25 mg/kg, PO)): 6 h | half-life ([2]; Brain (25 mg/kg, PO)): 2.83 h | Cmax ([2]; Plasma (25 mg/kg, PO)): 20400 ng/mL | Tmax ([2]; Plasma (25 mg/kg, PO)): 1.33 h | AUC(0-inf) ([2]; Plasma (25 mg/kg, PO)): 180 µg·h/mL | AUC(0-t) ([2]; Plasma (25 mg/kg, PO)): 177 µg·h/mL | MRT inf ([2]; Plasma (25 mg/kg, PO)): 6.95 h | half-life ([2]; Plasma (25 mg/kg, PO)): 3.08 h | Clobs, Mean ([2]; Plasma (25 mg/kg, PO)): 2.320 mL/min/kg | Vzobs, Mean ([2]; Plasma (25 mg/kg, PO)): 0.617 L/kg
Compound: CC(C)(C)c1ccc(-c2cc(/C=C3\SC(=O)NC3=O)ccn2)cc1 [Compound 11, (Z)-5-((2-(4-(tert-butyl)phenyl)pyridin-4-yl)methylene)thiazolidine-2,4-dione]
activity [1]: 4.6%
